Experimental data as given in patent US8809627B2, “Plant isoflavone and isoflavanone O-methyltransferase genes” (The Samuel Roberts Noble Foundation, Inc., priority 2006, dated 2014).

Key:
[1] = biological target: T1, MsI7OMT (Medicago sativa, UniProt O24529); assay: OMT assays with purified recombinant MsI7OMT (relative activity); assay type: biochemical; conditions: 50 μM S-adenosyl methionine, 100 μM acceptor substrate; most converted substrate = 100%
T1 sequence (O24529 1-352): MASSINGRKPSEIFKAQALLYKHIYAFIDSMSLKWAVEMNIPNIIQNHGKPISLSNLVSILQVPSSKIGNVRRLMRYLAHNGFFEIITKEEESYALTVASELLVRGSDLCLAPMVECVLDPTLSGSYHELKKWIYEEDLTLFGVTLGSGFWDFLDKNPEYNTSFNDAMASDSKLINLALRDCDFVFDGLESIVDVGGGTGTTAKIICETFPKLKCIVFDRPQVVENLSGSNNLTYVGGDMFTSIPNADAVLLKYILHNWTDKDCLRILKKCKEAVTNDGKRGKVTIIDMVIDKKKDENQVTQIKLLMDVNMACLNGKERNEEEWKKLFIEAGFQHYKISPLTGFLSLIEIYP
Text: (§1) Cloning of MtIOMT5 (corresponding to TC 100926, TIGR MtGI v.8) was as described previously (Liu et al., 2005). To obtain a full-length cDNA for MtIOMT2, specific primers designed based upon the M. truncatula genomic sequence were used to amplify the MtIOMT2 coding sequence from M. truncatula root cDNA. The amplified product was cloned into the pGEM®-T easy vector (Promega, Madison Wis.) and sequenced to confirm its identity. MtIOMTs were cloned into the pET28a vector (EMD Biosciences, Inc., San Diego, Calif.) using PCR-based amplification with primers designed to introduce EcoRI and XhoI restriction sites; BamHI and XhoI sites were used for cloning MtIOMT6 due to the presence of an internal EcoRI site in this particular cDNA. Because the EST for MtIOMT8 was missing a start codon, the primer designed to clone MtIOMT8 into pET28a contained an additional 2-nucleotide insertion to generate an ATG start site. All MtIOMTs were expressed as translational fusions to an N-terminal His-tag. Expression of MtIOMTs in E. coli BL21(DE3) and purification by Ni^2+-NTA chromatography were as described (Zubieta et al., 2001). Proteins were dialyzed against 20 mM Tris pH 8.0, 100 mM NaCl, 10% (v/v) glycerol, and 14 mM β-mercaptoethanol. Protein concentration was determined by Bradford assay using BSA as a standard (Bradford, 1976).
(§2) Reactions (200 μl) were performed in 0.1 M potassium phosphate, pH 7.4, 10% (w/v) sucrose, 14 mM β-mercaptoethanol with 10 μM protein, 0.5 mM S-adenosyl-L-methionine, and 80 μM phenolic substrates. All substrates were purchased from Indofine (Hillsborough, N.J.) except 6,7-dihydroxy-4′-methoxyisoflavone, dihydrodaidzein, and vestitol, which were purchased from Apin (Oxfordshire, UK). […] OMT assays were incubated at 30° C. for 2 h and extracted with ethyl acetate. Ethyl acetate extracts were dried under N2 and the resultant material was resuspended in 50-100 μl of methanol. Samples were analyzed on an Agilent 1100 HPLC, equipped with a quaternary pump (model #G1311A), a degasser (model #G1322A), an autosampler (model #G1313A), and a diode array detector (model #G1315A). Samples of 20 μl were applied to an ODS2 reverse-phase column (5 μm particle size, 4.6×250 mm) and eluted in 1% (v/v) phosphoric acid with an increasing gradient of acetonitrile (0-5 min, 25%; 5-35 min, 25-50%; 35-39 min, 50-100%) at a flow rate of 1 ml/min. To resolve the 4′-O-methylated and 7-O-methylated products of genistein, samples were applied to a Phenomenex SYNERGI Polar-RP 80 Å column (4 μm particle size, 4.6×250 mm) and eluted in water with an increasing gradient of acetonitrile (0-5 min, 20%; 5-17 min, 20-38%; 17-33 min, 38%; 33-45 min, 38-56%; 45-46 min, 56-100%) at a flow rate of 1 ml/min. Chiral chromatography was performed as described (Liu et al., 2005).
(§3) For determination of specific activities, reactions (100 μl) were performed in 0.1 M potassium phosphate, pH 7.4, 10% (w/v) sucrose, 14 mM β-mercaptoethanol with 0.2-μg protein, 50 μM S-adenosyl-L-methionine (0.025 μCi ^14C-SAM per reaction), and 100 μM substrate. Reactions were incubated at 30° C. for 15-25 min and stopped by addition of 4 μl of 1N HCl. Products were extracted into 500 μl of ethyl acetate and 400 μl was used for liquid scintillation counting.

[2] = test system: MtIOMT1; assay: OMT assays with purified recombinant MtIOMT1 (relative activity with 14C-SAM); assay type: biochemical, Medicago truncatula; conditions: for Relative activity, MtIOMT1: 50 μM S-adenosyl methionine, 100 μM acceptor substrate, most converted substrate = 100%
Text: as §1, with “1976). […]” for “1976).”
as §3

[3] = test system: MtIOMT4; assay: OMT assays with purified recombinant MtIOMT4 (relative activity; HPLC of products); assay type: biochemical, Medicago truncatula; conditions: for Relative activity, MtIOMT4: 50 μM S-adenosyl methionine, 100 μM acceptor substrate, most converted substrate = 100%
Text: as §1, §2
For determination of specific activities, reactions (100 μl) were performed in 0.1 M potassium phosphate, pH 7.4, 10% (w/v) sucrose, 14 mM β-mercaptoethanol with 0.2-μg protein, 50 μM S-adenosyl-L-methionine (0.025 μCi ^14C-SAM per reaction), and 100 μM substrate. Reactions were incubated at 30° C. for 15-25 min and stopped by addition of 4 μl of 1N HCl. Products were extracted into 500 μl of ethyl acetate and 400 μl was used for liquid scintillation counting. […]

SMILES | Relative activity, MsI7OMT [1] | Relative activity, MtIOMT1 [2] | Activity of MtIOMT4 (in words) [3] | Relative activity, MtIOMT4 [3] [%] | Fold by which relative initial activity with glycitein is higher than with this substrate ([2]; MtIOMT1, saturating concentration of glycitein) [fold] | Fold reduction of activity compared with 6,7,4′-trihydroxyisoflavone ([2]; MtIOMT1, methylation of the 4′-hydroxyl group)
O=c1oc2cc(O)ccc2c2oc3cc(O)ccc3c12 [Coumestrol] | 0% | 0% | low level, trace activity | 100 |  | 
COc1cc2c(=O)c(-c3ccc(O)cc3)coc2cc1O [Glycitein] | 100% | 100% |  | 0 |  | 
O=c1c(-c2ccc(O)cc2)coc2cc(O)ccc12 [Daidzein] | 21.6% | 20.6% |  | 0 | 5 | 
O=c1c(-c2ccc(O)cc2)coc2cc(O)cc(O)c12 [Genistein] | 15% | 49.2% |  | 0 |  | 
COc1ccc(-c2coc3cc(O)c(O)cc3c2=O)cc1 [6,7-dihydroxy,4′-methoxyisoflavone] | ≦1% | ≦1% |  | 0 |  | more than 80 fold
O=c1c(O)c(-c2cc(O)c(O)c(O)c2)oc2cc(O)cc(O)c12 [Myricetin] | 0% | 0% |  | 0 |  | 
O=c1cc(-c2ccc(O)cc2)oc2cc(O)cc(O)c12 [Apigenin] | 0% | 0% |  | 0 |  | 
COc1ccc(C2COc3cc(O)ccc3C2)c(O)c1 (stereo not shown) [Vestitol] | 0% | 0% | low level, trace activity | 43.8 |  | 
O=c1cc(-c2ccc(O)cc2)oc2cc(O)ccc12 [7,4′-dihydroxyflavone] | 0% | 0% |  | 0 |  | 
O=c1c(-c2ccc(O)cc2)coc2cc(O)c(O)cc12 [6,7,4′-trihydroxyisoflavone] | 51.8% | 43.9% |  | 0 |  | 
O=c1c(-c2ccc(O)c(O)c2)coc2cc(O)ccc12 [7,3′,4′-trihydroxyisoflavone] | 47.1% | 40.8% |  | 0 |  | 
O=C1C[C@@H](c2ccc(O)cc2)Oc2cc(O)cc(O)c21 [Naringenin] | 0% | 0% |  | 0 |  | 
O=C1c2ccc(O)cc2OCC1c1ccc(O)cc1 (stereo not shown) [Dihydrodaidzein] | 12.8% | 15.6% |  | 0 |  | 
